Source: EPA's CvTdb concentration-time database

Legend:
Experiment in all cases: concentration in plasma after dosing
Rat [1] = conditions: dosed: Bromochloroacetic acid, 40 mg/kg, oral, Female, Harlan Sprague Dawley
Rat [2] = conditions: 0.75 h; dosed: Bromochloroacetic acid; 40 mg/kg; oral; Female; Harlan Sprague Dawley
Rat [3] = conditions: dosed: Bromochloroacetic acid, 40 mg/kg, oral, Female, Harlan Sprague Dawley; remark: listed apart in the source
Rat [4] = conditions: dosed: Bromochloroacetic acid, 10 mg/kg, oral, Male, Harlan Sprague Dawley
Rat [5] = conditions: dosed: Bromochloroacetic acid, 10 mg/kg, oral, Male, Harlan Sprague Dawley; remark: listed apart in the source
Rat [6] = conditions: 20 min; dosed: Bromochloroacetic acid; 10 mg/kg; oral; Male; Harlan Sprague Dawley
Rat [7] = conditions: dosed: Bromochloroacetic acid, 10 mg/kg, oral, Male, Harlan Sprague Dawley; remark: listed apart in the source
Rat [8] = conditions: dosed: Bromochloroacetic acid, 40 mg/kg, oral, Female, Harlan Sprague Dawley; remark: listed apart in the source
Rat [9] = conditions: dosed: Bromochloroacetic acid, 10 mg/kg, oral, Male, Harlan Sprague Dawley; remark: listed apart in the source
Rat [10] = conditions: 0.75 h; dosed: Bromochloroacetic acid; 40 mg/kg; oral; Female; Harlan Sprague Dawley; remark: listed apart in the source
Rat [11] = conditions: dosed: Bromochloroacetic acid, 10 mg/kg, oral, Male, Harlan Sprague Dawley; remark: listed apart in the source
Rat [12] = conditions: 0.75 h; dosed: Bromochloroacetic acid; 40 mg/kg; oral; Female; Harlan Sprague Dawley; remark: listed apart in the source
Rat [13] = conditions: dosed: Bromochloroacetic acid, 40 mg/kg, oral, Female, Harlan Sprague Dawley; remark: listed apart in the source
Rat [14] = conditions: dosed: Bromochloroacetic acid, 40 mg/kg, oral, Female, Harlan Sprague Dawley; remark: listed apart in the source
Rat [15] = conditions: dosed: Bromochloroacetic acid, 40 mg/kg, oral, Female, Harlan Sprague Dawley; remark: listed apart in the source
Rat [16] = conditions: dosed: Bromochloroacetic acid, 40 mg/kg, oral, Female, Harlan Sprague Dawley; remark: listed apart in the source
Rat [17] = conditions: dosed: Bromochloroacetic acid, 40 mg/kg, oral, Female, Harlan Sprague Dawley; remark: listed apart in the source
Rat [18] = conditions: dosed: Bromochloroacetic acid, 10 mg/kg, oral, Male, Harlan Sprague Dawley; remark: listed apart in the source
Rat [19] = conditions: dosed: Bromochloroacetic acid, 10 mg/kg, oral, Male, Harlan Sprague Dawley; remark: listed apart in the source
Rat [20] = conditions: 0.25 h; dosed: Bromochloroacetic acid; 10 mg/kg; oral; Male; Harlan Sprague Dawley
Rat [21] = conditions: dosed: Bromochloroacetic acid, 10 mg/kg, oral, Male, Harlan Sprague Dawley; remark: listed apart in the source
Rat [22] = conditions: dosed: Bromochloroacetic acid, 10 mg/kg, oral, Male, Harlan Sprague Dawley; remark: listed apart in the source
Rat [23] = conditions: dosed: Bromochloroacetic acid, 40 mg/kg, oral, Female, Harlan Sprague Dawley; remark: listed apart in the source
Rat [24] = conditions: 0.25 h; dosed: Bromochloroacetic acid; 10 mg/kg; oral; Male; Harlan Sprague Dawley; remark: listed apart in the source
Rat [25] = conditions: dosed: Bromochloroacetic acid, 40 mg/kg, oral, Female, Harlan Sprague Dawley; remark: listed apart in the source
Rat [26] = conditions: dosed: Bromochloroacetic acid, oral, Harlan Sprague Dawley
Rat [27] = conditions: dosed: Bromochloroacetic acid, 10 mg/kg, oral, Male, Harlan Sprague Dawley; remark: listed apart in the source
Rat [28] = conditions: dosed: Bromochloroacetic acid, 10 mg/kg, oral, Male, Harlan Sprague Dawley; remark: listed apart in the source
Rat [29] = conditions: dosed: Bromochloroacetic acid, 10 mg/kg, oral, Male, Harlan Sprague Dawley; remark: listed apart in the source
Rat [30] = conditions: 0.75 h; dosed: Bromochloroacetic acid; 40 mg/kg; oral; Female; Harlan Sprague Dawley; remark: listed apart in the source
Rat [31] = conditions: dosed: Bromochloroacetic acid, 10 mg/kg, oral, Male, Harlan Sprague Dawley; remark: listed apart in the source
Rat [32] = conditions: dosed: Bromochloroacetic acid, 10 mg/kg, oral, Male, Harlan Sprague Dawley; remark: listed apart in the source
Rat [33] = conditions: dosed: Bromochloroacetic acid, 40 mg/kg, oral, Female, Harlan Sprague Dawley; remark: listed apart in the source
Rat [34] = conditions: 5 min; dosed: Bromochloroacetic acid; 40 mg/kg; oral; Female; Harlan Sprague Dawley
Rat [35] = conditions: 20 min; dosed: Bromochloroacetic acid; 10 mg/kg; oral; Male; Harlan Sprague Dawley; remark: listed apart in the source
Rat [36] = conditions: 20 min; dosed: Bromochloroacetic acid; 10 mg/kg; oral; Male; Harlan Sprague Dawley; remark: listed apart in the source
Rat [37] = conditions: 0.75 h; dosed: Bromochloroacetic acid; 40 mg/kg; oral; Female; Harlan Sprague Dawley; remark: listed apart in the source
Rat [38] = conditions: 20 min; dosed: Bromochloroacetic acid; 10 mg/kg; oral; Male; Harlan Sprague Dawley; remark: listed apart in the source
Rat [39] = conditions: dosed: Bromochloroacetic acid, 40 mg/kg, oral, Female, Harlan Sprague Dawley; remark: listed apart in the source
Rat [40] = conditions: 20 min; dosed: Bromochloroacetic acid; 10 mg/kg; oral; Male; Harlan Sprague Dawley; remark: listed apart in the source
Rat [41] = conditions: dosed: Bromochloroacetic acid, 40 mg/kg, oral, Female, Harlan Sprague Dawley; remark: listed apart in the source
Rat [42] = conditions: dosed: Bromochloroacetic acid, 10 mg/kg, oral, Male, Harlan Sprague Dawley; remark: listed apart in the source
Rat [43] = conditions: dosed: Bromochloroacetic acid, 10 mg/kg, oral, Male, Harlan Sprague Dawley; remark: listed apart in the source
Rat [44] = conditions: dosed: Bromochloroacetic acid, 10 mg/kg, oral, Male, Harlan Sprague Dawley; remark: listed apart in the source
Rat [45] = conditions: dosed: Bromochloroacetic acid, 40 mg/kg, oral, Female, Harlan Sprague Dawley; remark: listed apart in the source
Rat [46] = conditions: dosed: Bromochloroacetic acid, 10 mg/kg, oral, Male, Harlan Sprague Dawley; remark: listed apart in the source
Rat [47] = conditions: dosed: Bromochloroacetic acid, 40 mg/kg, oral, Female, Harlan Sprague Dawley; remark: listed apart in the source
Rat [48] = conditions: dosed: Bromochloroacetic acid, 40 mg/kg, oral, Female, Harlan Sprague Dawley; remark: listed apart in the source

O=C(O)C(Cl)Br (stereo not given) [Bromochloroacetic acid]
Conditions | concentration in plasma [ng/mL]
Rat [1], 2 h | 3920
Rat [1], 10 min | 2220
Rat [3], 1.5 h | 4490
Rat [3], 5 min | 2540
Rat [4], 0.75 h | 485
Rat [4], 2 min | 216
Rat [5], 1 h | 164
Rat [5], 5 min | 255
Rat [7], 1 h | 196
Rat [7], 5 min | 423
Rat [8], 2 h | 4710
Rat [8], 10 min | 2240
Rat [9], 0.75 h | 284
Rat [9], 2 min | 80.1
Rat [11], 1 h | 201
Rat [11], 5 min | 210
Rat [13], 0.25 h | 5810
Rat [13], 3 h | 2170
Rat [14], 6 h | 201
Rat [14], 20 min | 5740
Rat [15], 4 h | 2010
Rat [15], 20 min | 3310
Rat [16], 1 h | 5710
Rat [16], 2 min | 984
Rat [17], 1 h | 9330
Rat [17], 2 min | 564
Rat [18], 0.75 h | 218
Rat [18], 2 min | 104
Rat [19], 1.5 h | 96.2
Rat [19], 10 min | 241
Rat [21], 0.25 h | 643
Rat [21], 2 h | 120
Rat [22], 1.5 h | 122
Rat [22], 10 min | 475
Rat [23], 1 h | 8650
Rat [23], 2 min | 484
Rat [25], 1.5 h | 7410
Rat [25], 5 min | 4130
Rat [27], 1.5 h | 107
Rat [27], 10 min | 494
Rat [28], 0.25 h | 545
Rat [28], 3 h | 88.7
Rat [29], 1.5 h | 155
Rat [29], 10 min | 322
Rat [31], 0.75 h | 225
Rat [31], 2 min | 104
Rat [32], 0.75 h | 283
Rat [32], 2 min | 71.7
Rat [33], 1 h | 7660
Rat [33], 2 min | 536
Rat [39], 1.5 h | 6540
Rat [39], 5 min | 2780
Rat [41], 0.25 h | 3060
Rat [41], 3 h | 1880
Rat [42], 1 h | 299
Rat [42], 5 min | 383
Rat [43], 1 h | 224
Rat [43], 5 min | 362
Rat [44], 0.25 h | 727
Rat [44], 2 h | 136
Rat [45], 1 h | 7500
Rat [45], 2 min | 396
Rat [46], 1.5 h | 238
Rat [46], 10 min | 516
Rat [47], 1.5 h | 5290
Rat [47], 5 min | 1440
Rat [48], 4 h | 1060
Rat [48], 6 h | 172

Conditions | concentration in plasma [ng/mL]
Rat [2] | 10700
Rat [6] | 544
Rat [10] | 6170
Rat [12] | 9710
Rat [20] | 576
Rat [24] | 476
Rat [30] | 10300
Rat [34] | 2990
Rat [35] | 733
Rat [36] | 663
Rat [37] | 11800
Rat [38] | 508
Rat [40] | 521

Rat [26]
Conditions | concentration in plasma [ng/mL]
0.25 h, 10 mg/kg, Male | 543
0.25 h, 40 mg/kg, Female | 5910
0.75 h, 10 mg/kg, Male | 177
0.75 h, 40 mg/kg, Female | 7630
1 h, 10 mg/kg, Male | 187
1 h, 40 mg/kg, Female | 6900
1.5 h, 10 mg/kg, Male | 166
1.5 h, 40 mg/kg, Female | 4860
2 h, 10 mg/kg, Male | 95.5
2 h, 40 mg/kg, Female | 2940
2 min, 10 mg/kg, Male | 83.2
3 h, 40 mg/kg, Female | 1990
4 h, 40 mg/kg, Female | 3160
5 min, 10 mg/kg, Male | 214
5 min, 40 mg/kg, Female | 1770
10 min, 10 mg/kg, Male | 168
10 min, 40 mg/kg, Female | 3420
20 min, 10 mg/kg, Male | 364
20 min, 40 mg/kg, Female | 4390
